We go through 10 molecules from US5502035A, “N-terminus modified analogs of LHRH” (Tap Holdings Inc., priority 1994, dated 1996).

The assay concerns the target T1, LHRH (Rattus norvegicus, UniProt P30969).
T1 construct: endogenous in cells; host or cells: rat pituitary cells (own knowledge of the cited Haviv 1989 method)
T1 sequence (P30969 1-327): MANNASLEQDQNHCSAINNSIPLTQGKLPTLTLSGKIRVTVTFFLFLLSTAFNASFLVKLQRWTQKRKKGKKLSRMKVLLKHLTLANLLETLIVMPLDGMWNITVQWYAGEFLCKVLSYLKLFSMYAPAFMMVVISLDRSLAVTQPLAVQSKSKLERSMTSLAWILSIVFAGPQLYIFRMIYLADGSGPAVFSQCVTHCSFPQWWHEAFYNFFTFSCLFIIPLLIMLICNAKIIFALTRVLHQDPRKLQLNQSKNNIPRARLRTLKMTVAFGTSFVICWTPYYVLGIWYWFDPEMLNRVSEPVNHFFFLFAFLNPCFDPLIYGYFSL
Description: in vitro test for LHRH antagonist potency (pA2). It counts as cell-based. As to conditions: negative logarithm of the antagonist concentration required to shift the response curve produced by the agonist leuprolide to two-fold higher concentration. The gist of the method:
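Rat LHRH receptor in vitro functional test; pA2 = negative log of the antagonist concentration shifting the leuprolide agonist response curve to two-fold higher concentration.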

Non-standard residues stand in square brackets, D forms with d. Residues, ends and D or L forms follow the SMILES beside them. *: point of attachment. dAla(benzothien-2-yl) = N[C@H](Cc1cc2ccccc2s1)C(=O)O; dPhe(4-Cl) = N[C@H](Cc1ccc(Cl)cc1)C(=O)O; d2Nal = N[C@H](Cc1ccc2ccccc2c1)C(=O)O; Lys(iPr) = CC(C)NCCCC[C@H](N)C(=O)O; NMeY = CN[C@@H](Cc1ccc(O)cc1)C(=O)O; X10 = Cc1ccc(S(=O)(=O)NNC(=O)*)cc1; dCit = NC(=O)NCCC[C@@H](N)C(=O)O; d3Pal = N[C@H](Cc1cccnc1)C(=O)O; Isonicotinoyl = O=C(c1ccncc1)*; Salicyloyl = O=C(c1ccccc1O)*; Nicotinoyl = O=C(c1cccnc1)*; Tos = Cc1ccc(S(=O)(=O)*)cc1; 2Furoyl = O=C(c1ccco1)*; X1 = O=C([C@@H]1CCCO1)*; azaGly = NNC(=O)O; βAla = NCCC(=O)O; Sar = CNCC(=O)O

A word on the Kb: it is the equilibrium dissociation constant of an antagonist, usually derived from a functional assay. Consider `CC(C)C[C@H](NC(=O)[C@@H](CCCCNC(=O)c1cccnc1)NC(=O)[C@H](Cc1ccc(O)cc1)N(C)C(=O)[C@H](CO)NC(=O)[C@@H](Cc1cc2ccccc2s1)NC(=O)[C@@H](Cc1ccc(Cl)cc1)NC(=O)CN(C)C(=O)CNC(=O)c1cccnc1)C(=O)N[C@@H](CCCCNC(C)C)C(=O)N1CCC[C@H]1C(=O)N[C@H](C)C(N)=O` [Example 35b, Nic-Gly-Sar-D4ClPhe-DBal-Ser-NMeTyr-DLys(Nic)-Leu-Lys(Isp)-Pro-DAlaNH2] (Nicotinoyl-G[Sar][dPhe(4-Cl)][dAla(benzothien-2-yl)]S[NMeY][dK](Nicotinoyl)L[Lys(iPr)]P[dA]-NH2), for which the antagonist equilibrium constant (Kb) is 0.0794 nM.
Consider `CC(C)C[C@H](NC(=O)[C@@H](CCCCNC(=O)c1cccnc1)NC(=O)[C@H](Cc1ccc(O)cc1)N(C)C(=O)[C@H](CO)NC(=O)[C@@H](Cc1cc2ccccc2s1)NC(=O)[C@@H](Cc1ccc(Cl)cc1)NC(=O)[C@@H](Cc1ccc2ccccc2c1)NC(=O)CCNC(=O)c1cccnc1)C(=O)N[C@@H](CCCCNC(C)C)C(=O)N1CCC[C@H]1C(=O)N[C@H](C)C(N)=O` [Example 36, N-Nicotinyl-3-Aminopropionyl-D2Nal-D4ClPhe-DBal-Ser-NMeTyr-DLys(N-epsilon-Nicotinyl) -Leu-Lys(N-epsilon-Isopropyl)-Pro-DAlaNH2] ({Nicotinoyl-βAla}-[d2Nal][dPhe(4-Cl)][dAla(benzothien-2-yl)]S[NMeY][dK](Nicotinoyl)L[Lys(iPr)]P[dA]-NH2), for which the Kb is 0.0224 nM.
Take `CC(C)C[C@H](NC(=O)[C@@H](CCCCNC(=O)c1cccnc1)NC(=O)[C@H](Cc1ccc(O)cc1)N(C)C(=O)[C@H](CO)NC(=O)[C@@H](Cc1cccnc1)NC(=O)[C@@H](Cc1ccc(Cl)cc1)NC(=O)[C@@H](Cc1ccc2ccccc2c1)NC(=O)NNC(=O)c1ccco1)C(=O)N[C@@H](CCCCNC(C)C)C(=O)N1CCC[C@H]1C(=O)N[C@H](C)C(N)=O` [Example 37a, N-(2-Furoyl)-Azagly-D2Nal-D4ClPhe-D3Pal-Ser-NMeTyr-DLys(Nic)-Leu-Lys(Isp)- Pro-DAlaNH2] (2Furoyl-[azaGly][d2Nal][dPhe(4-Cl)][d3Pal]S[NMeY][dK](Nicotinoyl)L[Lys(iPr)]P[dA]-NH2): the Kb is 0.00631 nM.
As for `CC(C)C[C@H](NC(=O)[C@@H](CCCCNC(=O)c1cccnc1)NC(=O)[C@H](Cc1ccc(O)cc1)N(C)C(=O)[C@H](CO)NC(=O)[C@@H](Cc1cccnc1)NC(=O)[C@@H](Cc1ccc(Cl)cc1)NC(=O)[C@@H](Cc1ccc2ccccc2c1)NC(=O)NNC(=O)c1cccnc1)C(=O)N[C@@H](CCCCNC(C)C)C(=O)N1CCC[C@H]1C(=O)N[C@H](C)C(N)=O` [Example 37b, N-Nicotinyl-Azagly-D2Nal-D4ClPhe-D3Pal-Ser-NMeTyr-DLys(Nic)-Leu-Lys(Isp)-Pro-DAlaNH2] (Nicotinoyl-[azaGly][d2Nal][dPhe(4-Cl)][d3Pal]S[NMeY][dK](Nicotinoyl)L[Lys(iPr)]P[dA]-NH2), the figure is 0.0158 nM; as for `CC(C)C[C@H](NC(=O)[C@@H](CCCCNC(=O)c1cccnc1)NC(=O)[C@H](Cc1ccc(O)cc1)N(C)C(=O)[C@H](CO)NC(=O)[C@@H](Cc1cccnc1)NC(=O)[C@@H](Cc1ccc(Cl)cc1)NC(=O)[C@@H](Cc1ccc2ccccc2c1)NC(=O)NNC(=O)c1ccccc1O)C(=O)N[C@@H](CCCCNC(C)C)C(=O)N1CCC[C@H]1C(=O)N[C@H](C)C(N)=O` [Example 37c, N-Salicyl-Azagly-D2Nal-D4ClPhe-D3Pal-Ser-NMeTyr-DLys(Nic)-Leu-Lys(Isp)-Pro-DAlaNH2] (Salicyloyl-[azaGly][d2Nal][dPhe(4-Cl)][d3Pal]S[NMeY][dK](Nicotinoyl)L[Lys(iPr)]P[dA]-NH2), 0.0251 nM; as for `CC(C)C[C@H](NC(=O)[C@@H](CCCCNC(=O)c1cccnc1)NC(=O)[C@H](Cc1ccc(O)cc1)N(C)C(=O)[C@H](CO)NC(=O)[C@@H](Cc1cccnc1)NC(=O)[C@@H](Cc1ccc(Cl)cc1)NC(=O)[C@@H](Cc1ccc2ccccc2c1)NC(=O)NNC(=O)c1ccncc1)C(=O)N[C@@H](CCCCNC(C)C)C(=O)N1CCC[C@H]1C(=O)N[C@H](C)C(N)=O` [Example 37d, N-Isonicotinyl-Azagly-D2Nal-D4ClPhe-D3Pal-Ser-NMeTyr-DLys(Nic)-Leu-Lys(Isp)-Pro-DAlaNH2] (Isonicotinoyl-[azaGly][d2Nal][dPhe(4-Cl)][d3Pal]S[NMeY][dK](Nicotinoyl)L[Lys(iPr)]P[dA]-NH2), 0.126 nM.
The same measure for `Cc1ccc(S(=O)(=O)NNC(=O)N[C@H](Cc2ccc3ccccc3c2)C(=O)N[C@H](Cc2ccc(Cl)cc2)C(=O)N[C@H](Cc2cccnc2)C(=O)N[C@@H](CO)C(=O)N(C)[C@@H](Cc2ccc(O)cc2)C(=O)N[C@H](CCCCNC(=O)c2cccnc2)C(=O)N[C@@H](CC(C)C)C(=O)N[C@@H](CCCCNC(C)C)C(=O)N2CCC[C@H]2C(=O)N[C@H](C)C(N)=O)cc1` [Example 37e, N-Tosyl-Azagly-D2Nal-D4ClPhe-D3Pal-Ser-NMeTyr-DLys(Nic)-Leu-Lys(Isp)-Pro-DAlaNH2] (X10-[d2Nal][dPhe(4-Cl)][d3Pal]S[NMeY][dK](Nicotinoyl)L[Lys(iPr)]P[dA]-NH2): 0.0224 nM; for `CC(C)C[C@H](NC(=O)[C@@H](CCCCNC(=O)c1cccnc1)NC(=O)[C@H](Cc1ccc(O)cc1)N(C)C(=O)[C@H](CO)NC(=O)[C@@H](Cc1cccnc1)NC(=O)[C@@H](Cc1ccc(Cl)cc1)NC(=O)[C@@H](Cc1ccc2ccccc2c1)NC(=O)CNC(=O)[C@@H]1CCCO1)C(=O)N[C@@H](CCCCNC(C)C)C(=O)N1CCC[C@H]1C(=O)N(C)CC(N)=O` [Example 39, N-(S)-Tetrahydrofur-2-oyl-Gly-D2Nal-D4ClPhe-D3Pal-Ser-NMeTyr-DLys(Nicotinyl)-Leu-Lys(Isp)-Pro-SarNH2]: 0.0155 nM.
In the case of `Cc1ccc(S(=O)(=O)N[C@H](Cc2ccc3ccccc3c2)C(=O)N[C@H](Cc2ccc(Cl)cc2)C(=O)N[C@H](Cc2cccnc2)C(=O)N[C@@H](CO)C(=O)N(C)[C@@H](Cc2ccc(O)cc2)C(=O)N[C@H](CCCNC(N)=O)C(=O)N[C@@H](CC(C)C)C(=O)N[C@@H](CCCNC(=N)N)C(=O)N2CCC[C@H]2C(=O)N[C@H](C)C(N)=O)cc1` [Example 66, N-Tosyl-D2Nal-D4ClPhe-D3Pal-Ser-NMeTyr-DCit-Leu-Arg-Pro-DAlaNH2] (Tos-[d2Nal][dPhe(4-Cl)][d3Pal]S[NMeY][dCit]LRP[dA]-NH2), the Kb is 2.63 nM.
Regarding `CC(C)C[C@H](NC(=O)[C@@H](CCCCNC(=O)c1cccnc1)NC(=O)[C@H](Cc1ccc(O)cc1)N(C)C(=O)[C@H](CO)NC(=O)[C@@H](Cc1cccnc1)NC(=O)[C@@H](Cc1ccc(Cl)cc1)NC(=O)[C@@H](Cc1ccc2ccccc2c1)NC(=O)[C@@H]1CCCO1)C(=O)N[C@@H](CCCCNC(C)C)C(=O)N1CCC[C@H]1C(=O)N[C@H](C)C(N)=O` [Example 67, N-(S)-Tetrahydrofur-2-oyl-D2Nal-D4ClPhe-D3Pal-Ser-NMeTyr-DLys(Nic)-Leu-Lys(Isp)-Pro-DAlaNH2] (X1-[d2Nal][dPhe(4-Cl)][d3Pal]S[NMeY][dK](Nicotinoyl)L[Lys(iPr)]P[dA]-NH2), the Kb is 0.0251 nM.
